From publication PMC5707448, “Luminescent platinum(II) complexes with self-assembly and anti-cancer properties: hydrogel, pH dependent emission color and sustained-release properties under physiological conditions” (Chemical Science, 2015)

Legend:
HeLa cells [1] = assay: Sustained cytotoxicity in Transwell plates (MTT), HeLa in lower chamber; format: cell-based, human; conditions: upper chamber loaded for 1 h, total 72 h
Protocol: The sustained cytotoxicity of 1a-hydrogel towards HeLa cells was tested in double-chambered Transwell® 24-well plates (Fig. 8a). The plate has a semi-permeable membrane to separate the HeLa cells (lower chamber) from direct contact with hydrogel (upper chamber). After treatment of HeLa cells with 1a-hydrogel (100 μM) at different time intervals, the upper chambers were removed and the HeLa cells were further incubated in the absence of the hydrogel. After a total of 72 h, the cell survival percentage was quantified by MTT assay. […] Therefore, an acidic environment can stimulate a faster release of 1a from 1a-hydrogel resulting in a more rapid cytotoxic effect. As the microenvironment of tumor tissues is often acidic compared to that of normal tissues,[20]1a-hydrogel could potentially achieve selective cytotoxicity towards tumor cells under in vivo conditions. […]
(§1) orifice, stored in pre-cooled Hank’s Balanced Solution (HBSS), and then cut with small scissor into about 2-3 mm3. The specimens were then digested with 0.5% collagenase IV at 37 °C for 15 min, filtered through sterile 100 mesh filter screen. […]
(§2) MTT assay Cancer cells (cell density = 4000-6000 cells/100µL) were seeded in a 96-well, flat-bottomed microtitre plate in growth medium (100 µL) and incubated at 37 °C under a 5% CO2 atmosphere for 24 h. […] After further in dark at 37 °C overnight, the percentage of survival cells were determined with a microtitre plate reader at 590 nm.
Naphthol blue black (NBB) staining assay After a total incubation time of 72 h, the medium was removed and a mixture of 50 µL of formaldehyde (3% in PBS) and 50 µL of NBB solution (0.05% NBB, 0.1 M sodium acetate, 9% acetic acid) was added. […] The percentage of survival cells was determined with a microtitre plate […]
and 72 h). […] After further in dark at 37 °C overnight, the percentage of survival cells were determined with a microtitre plate reader at 590 nm. […]

HeLa cells [2] = assay: Naphthol blue black (NBB) staining assay, HeLa; format: cell-based, human; conditions: 72 h incubation, read-out: Anti-proliferative activities towards HeLa cells (NBB staining assay)
Protocol: MTT assay Cancer cells (cell density = 4000-6000 cells/100µL) were seeded in a 96-well, flat-bottomed microtitre plate in growth medium (100 µL) and incubated at 37 °C under a 5% CO2 atmosphere for 24 h. Different concentrations of complexes were added and the plates were incubated for 72 h. […]
Naphthol blue black (NBB) staining assay After a total incubation time of 72 h, the medium was removed and a mixture of 50 µL of formaldehyde (3% in PBS) and 50 µL of NBB solution (0.05% NBB, 0.1 M sodium acetate, 9% acetic acid) was added. After further 30 min incubation, the mixture was removed and each well was washed with deionized water for 3 times. The plates were air-dried and 100 µL of NaOH (50 mg/mL) was added to solubilize the NBB-stained cells. The plates were […]
shaken for 1 h. […]

breast cancer (MDA) = assay: MTT cytotoxicity assay, MDA; format: cell-based; conditions: 72 h treatment
Protocol: (§3) We then tested whether accumulation of platinum(II) complexes in lysosomes was associated with an increase in lysosomal membrane permeability (LMP). […] The cells were then treated with 1a or 2 at different concentrations.[17] […] Induction of LMP is a known cell death mechanism.[19] Therefore, we examined the cytotoxicity of the platinum(II) complexes towards different cancer cells by means of MTT (3-(4,5-dimethyl-2-thiazolyl)-2,5-diphenyltetrazolium bromide) (Table 1) and naphthol blue black (NBB) staining (Table S4 ^†) assays. […]
(§4) MTT assay Cancer cells (cell density = 4000-6000 cells/100µL) were seeded in a 96-well, flat-bottomed microtitre plate in growth medium (100 µL) and incubated at 37 °C under a 5% CO2 atmosphere for 24 h. Different concentrations of complexes were added and the plates were incubated for 72 h. After a total incubation time of 72 h, MTT in PBS solution (5 mg/mL, 10 µL) was added to each well. The plates were incubated at 37 °C under a 5% CO2 atmosphere for another 4 h, followed by adding 100 µL of sodium dodecyl sulfate (SDS, 10%) in diluted hydrochloric acid to each well. After further in dark at 37 °C overnight, the percentage of survival cells were determined with a microtitre plate reader at 590 nm. […]

B16 melanoma = assay: MTT cytotoxicity assay, B16; format: cell-based; conditions: 72 h treatment
Protocol: as §3, §4

[3] = system: primary bladder cancer cells; assay: MTT assay on primary bladder cancer cells; format: cell-based, human; conditions: 72 h incubation, read-out: Cytotoxic IC50, primary bladder cancer cells
Protocol: as §1, with “screen. The cells were collected by centrifugation at 700 g for 5 min, and then re-suspended in DMEM culture medium supplemented with penicillin (100 units/ml), streptomycin (100 μg/ml) and fungazone (0.25 μg/ml) at 37 °C in 95% air, 5% CO2, and cultured in” for “screen.”
The medium was replaced continuously every day. The interstitial cells were removed from the primary bladder cancer cells by trypsinization with 10-times diluted enzyme. The cells were used for drug screening when the confluence reached about 70%-80%. […]
as §2
Naphthol blue black (NBB) staining assay After a total incubation time of 72 h, the medium was removed and a mixture of 50 µL of formaldehyde (3% in PBS) and 50 µL of NBB solution (0.05% NBB, 0.1 M sodium acetate, 9% acetic acid) was added. […] The percentage of survival cells was determined with a microtitre plate

[4] = system: ovarian carcinoma (A2780); assay: MTT cytotoxicity assay, A2780; format: cell-based; conditions: 72 h treatment
Protocol: as §3, §4

HeLa = assay: MTT cytotoxicity assay, HeLa; format: cell-based, human; conditions: 72 h treatment
Protocol: as §3, §4

[5] = system: nasopharyngeal carcinoma (SUNE1); assay: MTT cytotoxicity assay, SUNE1; format: cell-based; conditions: 72 h treatment
Protocol: as §3, §4

HeLa cells [6] = assay: Lysosomal membrane permeability by acridine orange staining; format: cell-based, human; conditions: 5 or 10 μM, 30 min, 37 °C
[7] = system: hepatocellular carcinoma cells (HepG2); assay: MTT cytotoxicity assay, HepG2; format: cell-based; conditions: 72 h treatment
Protocol: as §3, §4

HeLa cells [8] = assay: Soft agar colony formation assay; format: cell-based, human; conditions: 2 μM, 7 day
Protocol: HeLa cells (0.07 × 106) were seeded with 600 µL cultured medium in the lower chambers of the double-decked Transwell® 24-well plates and incubated at 37 °C under a 5% CO2 atmosphere for 24 h. A uniform scratch was introduced on each well using a […] and the images of the scratches were recorded (0 h).
Berberine@1a-hydrogel and 1a-hydrogel in 100 µL medium was separately introduced to the upper chamber. The upper chambers were detached from the lower chamber after 4 h or 8 h incubation time. The images of the scratches were captured after 24 h incubation time.
Soft agar colony formation assay
HeLa cells (1.5 × 105) were mixed with solvent control or 1a (2 µM) in 2 mL medium with 0.35% soft agar per well in a 6-well plate coated with medium with 0.7% soft agar. 1 mL medium containing solvent control or 1a (2 µM) was added to the soft agar after the soft agar was solidified. The imaging was captured after incubating the plate at 37 °C under a 5% CO2 atmosphere for 7 day.

[9] = system: non-tumorigenic immortalized liver cells (MIHA); assay: MTT cytotoxicity assay, MIHA; format: cell-based; conditions: 72 h treatment
Protocol: as §3, §4

[10] = pH 7.4, 1a-hydrogel and cisplatin 100 μM

SMILES | Cell survival (HeLa cells [1]; pH 6.0, 100 μM) | Cell survival (HeLa cells [1]; [10]) | IC50 (HeLa cells [2]) | IC50 (breast cancer (MDA)) | IC50 (B16 melanoma) | IC50 [3] | IC50 [4] | IC50 (HeLa) | IC50 [5] | Lysosomal membrane permeability (red fluorescence of acridine orange) (HeLa cells [6]) | IC50 [7] | Anchorage-independent colony formation (HeLa cells [8]) | IC50 [9]
N.N.[Cl][Pt][Cl] [Cisplatin] | ~20% | ~20% | 4290 ± 360 nM |  |  |  |  |  |  |  |  |  | 
Cc1cccc(C)c1[N+]#[C][Pt-2]12[c]3ccccc3-c3cccc([n+]31)-c1cc[nH][n+]12.[Cl-] (centres unmarked) [Complex 1a, [Pt(C^N^N^pyr)(C?NR^1)]Cl] |  | ~15% | 1050 ± 60 nM | 1.6 ± 0.4 µM | 660 ± 40 nM | 6.9 µM | 1200 ± 100 nM | 4.4 ± 0.6 µM | 3.5 ± 0.8 µM | dose-dependent reductions of red fluorescence | 1.3 ± 0.1 µM | inhibited anchorage-independent colony formation | 6.36 ± 0.15 µM
Cc1cccc(C)c1[N+]#[C][Pt-2]12[c]3ccccc3-c3cccc([n+]31)-c1cc[nH][n+]12.O=S(=O)(O)C(F)(F)F (centres unmarked) [Complex 1b] |  |  | 900 ± 170 nM | 2.1 ± 0.5 µM | 420 ± 20 nM |  | 1200 ± 100 nM | 2.8 ± 0.2 µM | 2.8 ± 0.6 µM |  | 1.7 ± 0.4 µM |  | 5.23 ± 0.62 µM
CCCC[N+]#[C][Pt-2]12[c]3ccccc3-c3cccc([n+]31)-c1cc[nH][n+]12.[Cl-] (centres unmarked) [Complex 2] |  |  | 2280 ± 180 nM | 5 ± 0.2 µM | 850 ± 70 nM |  | 3300 ± 200 nM | 5.1 ± 1.1 µM | 4.4 ± 1 µM | dose-dependent reductions of red fluorescence | 4 ± 0.8 µM |  | 8.12 ± 1.27 µM
COc1ccc([N+]#[C][Pt-2]23[c]4ccccc4-c4cccc([n+]42)-c2cc[nH][n+]23)cc1.O=S(=O)(O)C(F)(F)F (centres unmarked) [Complex 3] |  |  | 1980 ± 210 nM | 4.2 ± 1 µM | 2600 ± 200 nM |  | 2700 ± 100 nM | 3.8 ± 0.5 µM | 3.9 ± 0.7 µM |  | 2.7 ± 0.2 µM |  | 9.56 ± 2.15 µM
O=S(=O)(O)C(F)(F)F.[C](#[N+]c1ccc2ccccc2c1)[Pt-2]12[c]3ccccc3-c3cccc([n+]31)-c1cc[nH][n+]12 (centres unmarked) [Complex 4] |  |  | 3520 ± 890 nM | 7.4 ± 0.5 µM | 3000 ± 300 nM |  | 5000 ± 200 nM | 8.3 ± 0.9 µM | 7.9 ± 1.3 µM |  | 6.2 ± 0.6 µM |  | 13.5 ± 2.12 µM
COCCOCCOc1ccc([N+]#[C][Pt-2]23[c]4ccccc4-c4cccc([n+]42)-c2cc[nH][n+]23)cc1.O=S(=O)(O)C(F)(F)F (centres unmarked) [Complex 5] |  |  | 9470 ± 1920 nM | 8.3 ± 1.6 µM | 6200 ± 500 nM |  | 11700 ± 2100 nM | 14.4 ± 3.5 µM | 12.3 ± 4.2 µM |  | 9 ± 1.6 µM |  | 20.2 ± 2.92 µM
